Test results: ChEMBL document CHEMBL5244218, “Quinolone derivatives and their activities against methicillin-resistant Staphylococcus aureus (MRSA)” (Eur J Med Chem, 2018)
pIC50: −log10 of the molar value. Converted amounts (≈) assume the structure as drawn.

Tests used:
[1] = Cytotoxicity against human HEK293 cells incubated for 72 hrs by MTT assay; type: toxicity, cell-based
[2] = system: Staphylococcus aureus; experiment: Antimicrobial activity against methicillin-resistant Staphylococcus aureus; type: functional, organism-based
[3] = system: Staphylococcus aureus; experiment: Potency index, ratio of ciprofloxacin MIC to test compound MIC for antimicrobial activity against methicillin-resistant Staphylococcus aureus; type: functional
[4] = system: Staphylococcus aureus; experiment: Antibacterial activity against methicillin-resistant Staphylococcus aureus isolates by two fold dilution method; type: functional
[5] = system: Staphylococcus aureus; experiment: Antibacterial activity against methicillin-resistant Staphylococcus aureus assessed as inhibition of microbial growth; type: functional
[6] = system: Staphylococcus aureus; experiment: Potency index, ratio of norfloxacin MIC to test compound MIC for antimicrobial activity against methicillin-resistant Staphylococcus aureus; type: functional
[7] = system: Staphylococcus aureus; experiment: Antibacterial activity against methicillin-resistant Staphylococcus aureus; type: functional
[8] = system: Staphylococcus aureus; experiment: Antimicrobial activity against methicillin-resistant Staphylococcus aureus isolates by agar dilution method; type: functional
[9] = system: Staphylococcus aureus; experiment: Antimicrobial activity against methicillin-resistant Staphylococcus aureus assessed as inhibition of microbial growth; type: functional
[10] = system: Staphylococcus aureus; experiment: Bactericidal activity against methicillin-resistant Staphylococcus aureus assessed as inhibition of microbial growth; type: functional
[11] = system: Staphylococcus aureus; experiment: Antimicrobial activity against methicillin-resistant Staphylococcus aureus incubated for 18 hrs by Alamar blue staining based analysis; type: functional
[12] = system: Staphylococcus aureus; experiment: Antimicrobial activity against methicillin-resistant Staphylococcus aureus Mi300 by microbroth dilution method; type: functional
[13] = system: Staphylococcus aureus; experiment: Antimicrobial activity against methicillin-resistant Staphylococcus aureus Mi339 by microbroth dilution method; type: functional
[14] = system: Staphylococcus aureus; experiment: Antimicrobial activity against methicillin-resistant Staphylococcus aureus clinical isolate 1 measured after 18 hrs by agar dilution method; type: functional
[15] = system: Staphylococcus aureus; experiment: Antimicrobial activity against methicillin-resistant Staphylococcus aureus clinical isolate 2 measured after 18 hrs by agar dilution method; type: functional
[16] = system: Staphylococcus aureus; experiment: Potency index, ratio of norfloxacin MIC to test compound MIC for antimicrobial activity against methicillin-resistant Staphylococcus aureus clinical isolate 1; type: functional
[17] = system: Staphylococcus aureus; experiment: Potency index, ratio of ciprofloxacin MIC to test compound MIC for antimicrobial activity against methicillin-resistant Staphylococcus aureus clinical isolate 2; type: functional
[18] = system: Staphylococcus aureus; experiment: Potency index, ratio of norfloxacin MIC to test compound MIC for antimicrobial activity against methicillin-resistant Staphylococcus aureus clinical isolate 2; type: functional
[19] = system: Staphylococcus aureus; experiment: Potency index, ratio of ciprofloxacin MIC to test compound MIC for antimicrobial activity against methicillin-resistant Staphylococcus aureus clinical isolate 1; type: functional
[20] = system: Staphylococcus aureus; experiment: Antimicrobial activity against methicillin-resistant Staphylococcus aureus by agar dilution method; type: functional

For `COc1ccc(Cn2c(-c3ccccc3O)nn(CN3CCN(c4c(F)cc5c(=O)c(C(=O)O)cn(C6CC6)c5c4Cl)CC3)c2=S)cc1`, the EC50 at 72 h [1] was 50.5 µM.

In the case of `COc1c2c(cc(F)c1N1C[C@H]3CCCN(C[C@@H](O)Cn4cc([N+](=O)[O-])nc4C)[C@H]3C1)C(=O)C(C(=O)O)=CC2C1CC1` (some centres undefined), the MIC [2] was 2 µg/mL (≈ 3.43 µM).

For `O=C(O)c1cn(C2CC2)c2cc(N3CCN(Cc4cccc(CN5CCN(c6ncc7c(=O)c(C(=O)O)cn(C8CC8)c7n6)CC5)c4)CC3)ccc2c1=O`, the Ratio [3] was >16 and the MIC [2] was < 0.03 µg/mL.

Work on `CC1CN(c2c(F)cc3c(=O)c(C(=O)O)c4scc5n4c3c2N(C)C5)CCN1C` (centres undefined) yielded an MIC [4] of 0.05 µg/mL (≈ 0.12 µM).

`CNCC1CN(c2ccc3c(=O)c(C(=O)O)cn(C4CC4)c3c2C(C)=O)CC1(C)C` (centres undefined) gave an MIC [5] of 0.015 µg/mL.

In the case of `CC(=O)c1c(N2CC(CN)C(C)(C)C2)cc(N)c2c(=O)c(C(=O)O)cn(C3CC3)c12` (centres undefined), the MIC [5] was 0.015 µg/mL.

In the case of `O=C(O)c1cn(CC(O)Cn2cncn2)c2cc(C(F)(F)F)ccc2c1=O` (centres undefined), the Ratio [6] was 8 and the MIC [7] was 1 µg/mL (≈ 2.62 µM).

Work on `Cc1ccc(NC2CN(c3c(F)cc4c(=O)c(C(=O)O)cn(C5CC5)c4c3F)C2)cc1` yielded an MIC [8] of 0.016 µg/mL (≈ 0.0376 µM).

In the case of `COc1cccc(C(=O)N2CCN(C(=O)N3CCN(c4ccc5c(=O)c(C(=O)O)cn(C6CC6)c5c4)CC3)CC2)c1`, the MIC [9] was < 0.016 µg/mL and the MBC [10] was ≥ 128 µg/mL.

Work on `COc1c(N2CC/C(=N/Oc3ccccc3)C(N)C2)c(F)cc2c(=O)c(C(=O)O)cn(C3CC3)c12` (centres undefined) yielded an MIC [11] of 0.008 µg/mL (≈ 0.0166 µM).

`CCO/N=C1\CCN(c2c(F)cc3c(=O)c(C(=O)O)cn(C4CC4)c3c2F)CC1(C)CN` (centres undefined) showed an MIC [2] of 8 µg/mL (≈ 17.8 µM).

With `O=C(O)c1cn(C2CC2)c2c(Cl)c(N3CCN(Cn4nc(-c5ccccc5O)n(-c5cc(Cl)cc(Cl)c5)c4=S)CC3)c(F)cc2c1=O` the EC50 at 72 h [1] was 50.5 µM.

In the case of `CNC1CCCN(c2c(F)cc3c(=O)c(C(=O)O)cn(C4CC4)c3c2OC)C1` (centres undefined) [BALOFLOXACIN], the MIC [11] was 4 µg/mL (≈ 10.3 µM).

With `COc1c(N2CCOCC2)c(F)cc2c(=O)c(C(=O)Nc3nccs3)cn(C3CC3)c12` the MIC [7] was > 201 µg/mL.

Molecule `COc1cc(=O)n(C)c2ccccc12` has a pIC50 [2] of 5.10.

Work on `O=C(O)c1cn(C2CC2)c2cc(N3CCNCC3)c(F)cc2c1=O` [CIPROFLOXACIN] yielded an MIC [11] of 64 µg/mL (≈ 193 µM), an MIC [12] of 0.25 µg/mL (≈ 0.754 µM) and an MIC [5] of 0.06 µg/mL. The MIC [2] was 0.5 µg/mL (≈ 1.51 µM), the MBC [10] was 0.031 µg/mL and the MIC [13] was 32 µg/mL (≈ 96.6 µM).

Work on `CC1(C)CN(c2ccc3c(=O)c(C(=O)O)cn(C4CC4)c3c2)CC1CN` (centres undefined) yielded an MIC [5] of 0.015 µg/mL.

With `CCOC(=O)c1ccc(NC2CN(c3c(F)cc4c(=O)c(C(=O)O)cn(C5CC5)c4c3F)C2)cc1` the MIC [8] was 0.016 µg/mL (≈ 0.0331 µM).

Work on `CC1COc2c(N3CCN(C)CC3)c(F)cc3c(=O)c(C(=O)O)cn1c23` (centres undefined) [OFLOXACIN] yielded an MIC [4] of 1.56 µg/mL (≈ 4.32 µM).

Molecule `COc1ccc(O/N=C2/CCN(c3c(F)cc4c(=O)c(C(=O)O)cn(C5CC5)c4c3OC)CC2N)cc1` (centres undefined) has an MIC [11] of 0.008 µg/mL (≈ 0.0157 µM).

In the case of `COc1ccc(C(=O)N2CCN(C(=O)N3CCN(c4ccc5c(=O)c(C(=O)O)cn(C6CC6)c5c4)CC3)CC2)cc1`, the MIC [9] was < 0.016 µg/mL and the MBC [10] was ≥ 128 µg/mL.

`CCNCC1CCN(c2c(F)cc3c(=O)c(C(=O)O)c4scc5n4c3c2NC5)C1` (centres undefined) showed an MIC [4] of 0.05 µg/mL (≈ 0.12 µM).

With `COc1c(N2CCCC2)c(F)cc2c(=O)c(C(=O)Nc3nccs3)cn(C3CC3)c12` the MIC [7] was > 201 µg/mL.

Work on `CNCC1CN(c2ccc3c(=O)c(C(=O)O)cn(-c4ccc(F)cc4F)c3n2)CC1(C)C` (centres undefined) yielded an MIC [5] of 0.015 µg/mL.

With `COc1c(N2CC/C(=N/Oc3ccc(Cl)cc3)C(N)C2)c(F)cc2c(=O)c(C(=O)O)cn(C3CC3)c12` (centres undefined) the MIC [11] was 0.008 µg/mL (≈ 0.0155 µM).

`CNCC1CN(c2ccc3c(=O)c(C(=O)O)cn(C4CC4)c3n2)CC1(C)C` (centres undefined) showed an MIC [5] of 0.015 µg/mL.

`CCn1cc(C(=O)O)c(=O)c2cc(F)c(N3CCN(C)CC3)cc21` [PEFLOXACIN] gave an MIC [4] of 1.56 µg/mL (≈ 4.68 µM).

With `COc1ccc(C(=O)N2CCN(C(=O)N3CCN(c4ccc5c(=O)c(C(=O)O)cn(C6CC6)c5c4)CC3)CC2)cc1OC` the MIC [9] was < 0.016 µg/mL and the MBC [10] was ≥ 128 µg/mL.

In the case of `C[C@@H](O)[C@H]1C(=O)N2C(C(=O)O)=C(COC(=O)N3CCN(c4cc5c(cc4F)c(=O)c(C(=O)O)cn5C4CC4)CC3)S[C@H]12`, the MIC [12] was 0.06 µg/mL (≈ 0.0996 µM) and the MIC [13] was 0.06 µg/mL (≈ 0.0996 µM).

In the case of `CCn1cc(C(=O)O)c(=O)c2cc(F)c(N3CCNCC3)cc21` [NORFLOXACIN], the MIC [9] was < 0.016 µg/mL, the MIC [14] was 0.78 µg/mL (≈ 2.44 µM) and the MIC [15] was 0.78 µg/mL (≈ 2.44 µM). For the same molecule, the MIC [7] was 8 µg/mL (≈ 25.1 µM) and the MBC [10] was 4 µg/mL.

With `NO/N=C(/CN1CCN(c2cc3c(cc2F)c(=O)c(C(=O)O)cn3C2CC2)CC1)c1cccs1` the Ratio [16] was 4, the Ratio [17] was 2 and the Ratio [18] was 4. It also gave an MIC [14] of 0.19 µg/mL (≈ 0.391 µM), an MIC [15] of 0.19 µg/mL (≈ 0.391 µM) and a Ratio [19] of 2.

In the case of `COc1ccccc1C(=O)N1CCN(C(=O)N2CCN(c3ccc4c(=O)c(C(=O)O)cn(C5CC5)c4c3)CC2)CC1`, the MIC [9] was < 0.016 µg/mL and the MBC [10] was ≥ 128 µg/mL.

For `CCO/N=C1\CCN(c2c(F)cc3c(=O)c(C(=O)O)cn(C4CC4)c3c2F)CC1(C)CNC` (centres undefined), the MIC [20] was 64 µg/mL (≈ 138 µM).
